Experimental data as given in patent US20220023221A1, “Oral Unit Dosage Form Of Ivermectin” (CHEMO RESEARCH, S.L., priority 2020, published 2022).

Tests used:
[1] = system: SARS-CoV-2 virus; conditions: cited from earlier work
[2] = system: SARS-CoV-2; assay: viral load by real-time (RT) PCR in the nasal mucosa of SARS-CoV-2 positive patients; assay type: in vivo
Text: The term “viral load” is well known to a person skilled in the art. The term “viral load” is a measure of the severity of an active viral infection, and can be determined by methods known to the person skilled in the art. As an Example, the viral load can be calculated by estimating the live amount of virus in an involved body fluid such as a number of RNA copies per milliliter of blood plasma. For example, the viral load can be determined by a real-time (RT) PCR test.
Ivermectin tablets as produced in Example 1 were administered for seven days in a daily dose of 600 μg/kg once daily to 9 patients (IVM) which have been tested to be positive for SARS-CoV-2, whereas 7 patients (control) which have been tested to be positive for SARS-CoV-2, received placebo tablets during said 7 days period.
The viral load was measured by a real-time (RT) PCR test on treatment days 1, 3, 5 and 7 in the nasal mucosa.

[3] = oral administration of the approved dose of 200 μg/kg; read-out: maximum plasma concentration (Cmax); cited from earlier work
[4] = oral administration of the ivermectin tablets, 600 μg/kg once daily; patient with 100% viral load reduction
[5] = increasing doses from 150 μg/kg/day to 1600 μg/kg/day, onchoceriasis patients; cited from earlier work

ivermectin
IC50 ([1]; SARS-CoV-2 replication in vitro, read-out: concentration resulting in 50% inhibition (IC50)): 2000 nM | inhibition of replication of SARS-CoV-2 virus in vitro ([1]; ivermectin at 5 μM): inhibit the replication of SARS-CoV-2 virus in vitro | reduction in viral load ([2]; Day 7, 600 μg/kg once daily for seven days, 9 patients, nasal mucosa): more than 50% | reduction of the viral load compared with control ([2]; each timepoint (days 1, 3, 5, 7), 600 μg/kg once daily, nasal mucosa): greater reduction of the viral load at each timepoint | Decay rate of viral load, single patient ([2]; the patient with 183 ng/ml IVM concentration): 0.54 day⁻¹ | viral load reduction in the nasal mucosa, single patient ([2]; the patient with 183 ng/ml ivermectin concentration in the blood): 100% | Cmax [3]: 50 nM | ivermectin (IVM) concentration in the blood, single patient [4]: 183 ng/mL | tolerability [5]: well tolerated
